In patent US8546320B2, “Hsp9O-targeted anti-cancer chimeric peptide” (Kyoto University, priority 2008, dated 2013):
Where two headings read alike, the source gives them in different places. One block for each compound: values may come before it. Where a SMILES comes first, the peptide text is derived from it.

How the values were obtained:
BT-20 = format: cell-based, human; conditions: 24 h
Description: (§1) A total of 3×10^3 cells were inoculated per well on a 96 well plate and cultured in a medium containing 10% FBS for 24 hours, and incubated with 100 μl of a peptide having a gradual increase in concentration at 37° C. for 48 to 72 hours. The survival rate of the cells was measured by using WST-8 solution (Cell Count Reagent SF; Nacalai Tesque, Inc.).
(§2) A total of 3×10^3 cells per well were inoculated onto a 96 well plate, and incubated in a medium containing 10% FBS with 100 μl of a peptide diluted stepwise at 37° C. for 48 to 72 hours. The survival rate of the cells was measured by using WST-8 solution (Cell Count Reagent SF; Nacalai Tesque, Inc.).

BXPC-3 = format: cell-based, human
[1] = test system: Human pancreatic cancer cells (Bxpc 3); experiment: Anti-tumor effect in cancer-bearing animal models, local administration; format: in vivo; conditions: site of administration and behavior observed
Description: Human pancreatic cancer cells (Bxpc 3) (5.0×10^6) were suspended in 150 μl of phosphate-buffered physiological saline (PBS) and transplanted subcutaneously into nude mice (BALB/c Slc-nu/nu). After 5 days, 150 μl of the Antp-TPR peptide suspended in PBS at a concentration of 1 mg/kg to 5 mg/kg was administered to the solid cancer every two days for a total of nine times, and the tumor contraction effect was examined. The tumor diameter was measured with calipers and the tumor volume (mm^3) was calculated according to the formula: length (mm)×minor diameter (mm)^2×0.5.

A549 = format: cell-based; conditions: 24 h
leukemia cell strains = format: cell-based, human
Description: as §2

LNCap = format: cell-based, human
K562 = experiment: cells; format: cell-based, human
Description: as §2

THP-1 = experiment: cells; format: cell-based, human
Description: as §2

HL-60 = experiment: cells; format: cell-based, human
Description: as §2

U937 [2] = experiment: cells; format: cell-based, human
Description: as §2

MDA-MB-231 = format: cell-based; conditions: 24 h
OE19 = format: cell-based; conditions: 24 h
Description: as §1, §2

cancer cells = experiment: Cell viability assay, summary statements on cancer cells; format: cell-based; conditions: 24 h
Caki-1 [3] = format: cell-based, human
HEK293 = experiment: cells; format: cell-based, human; conditions: Normal cell HEK; read-out: Anti-tumor activity, IC50 (μM) ± SD
Description: as §1, §2

[4] = target: T1, interaction between Hsp90 and the Hop's TPR2A domain (Homo sapiens, UniProt P07900); experiment: BIACORE competition: Hsp90 pre-mixed with peptide, added to immobilized TPR2A; format: binding; conditions: for Binding of Hsp90 (%): to immobilized TPR2A
T1 construct: histidine tag; made in house; host or cells: Hsp90: E. coli BL21 (pDEST17-Hsp90)
Text: It was examined whether the TPR peptide designed could compete specifically with the interaction between Hsp90, which is essential for the accurate folding of some carcinogenic protein including survivin in cancer cells, and the Hop's TPR2A domain.

U937 [5] = experiment: Penetration experiment, confocal microscope, U937; format: cell-based, human; conditions: U937, TAMRA-labeled peptide 10 μM, 1 hour
Description: TPR-TAMRA (TAMRA labeled body) or Antp-TPR-TAMRA (TAMRA labeled body) was added to 1×10^6 peripheral blood mononuclear cells (PBMCs), which were prepared from U937 cells, a mouse leukemia cell strain EL4 or mouse peripheral blood, at a final concentration of 10 μM, and the mixture was cultured for 1 hour. The peptide incorporated in the cell or influx of the medium into the cell after peptide penetration was observed under a confocal microscope (Olympus FV1000 (Olympus)), using a medium containing calcein.
TPR-TAMRA (TAMRA labeled body) or Antp-TPR-TAMRA (TAMRA labeled body) was added to 1×10^6 U937 cells to a final concentration of 10 μM; the mixture was cultured for one hour; and then the behavior of the peptide incorporated into the cell or the influx of the medium into the cell after peptide penetration was observed under a confocal microscope (Olympus FV1000 (Olympus)), using a calcein-containing medium.

T47D = format: cell-based, human; conditions: Breast cancer T47D; read-out: Anti-tumor activity, IC50 (μM) ± SD
Description: as §1

MRC-5 = format: cell-based, human; conditions: Normal cell MRC5; read-out: Anti-tumor activity, IC50 (μM) ± SD
Description: as §1

Caki-1 [6] = format: cell-based, human; conditions: Caki-1, 68 μM
Description: The TPR peptide or the TPR scramble peptide was mixed with a commercially available transfection reagent (Profect-P2 or, Lipofectamine LTX) and the mixture was left to incubate at room temperature for 20 minutes, to form liposome before the complex was added to cancer cells (Caki-1 (kidney cancer cells)); the survival rate of the cells was then measured by using WST-8 solution (Cell Count Reagent SF; Nacalai Tesque, Inc.) and the results were compared with those such as in the case of the TPR scramble peptide or the liposome alone.

SMILES: CC[C@H](C)[C@H](NC(=O)[C@H](CCCNC(=N)N)NC(=O)[C@H](C)NC(=O)[C@H](Cc1ccc(O)cc1)NC(=O)[C@H](C)NC(=O)[C@H](CCCCN)NC(=O)[C@H](CCCCN)NC(=O)[C@H](CCCCN)NC(=O)[C@H](Cc1c[nH]c2ccccc12)NC(=O)[C@H](CCCCN)NC(=O)[C@H](CCSC)NC(=O)[C@H](CCCNC(=N)N)NC(=O)[C@H](CCCNC(=N)N)NC(=O)[C@H](CC(N)=O)NC(=O)[C@H](CCC(N)=O)NC(=O)[C@H](Cc1ccccc1)NC(=O)[C@H](Cc1c[nH]c2ccccc12)NC(=O)[C@@H](NC(=O)[C@H](CCCCN)NC(=O)[C@@H](NC(=O)[C@H](CCC(N)=O)NC(=O)[C@@H](N)CCCNC(=N)N)[C@@H](C)CC)[C@@H](C)CC)C(=O)NCC(=O)N[C@@H](CC(N)=O)C(=O)N[C@@H](CO)C(=O)N[C@@H](Cc1ccc(O)cc1)C(=O)N[C@@H](Cc1ccccc1)C(=O)N[C@@H](CCCCN)C(=O)O [Antp-TPR] (H-RQIKIWFQNRRMKWKKKAYARIGNSYFK-OH; N-terminus and C-terminus assumed)
IC50 (BT-20): 32.8 ± 5.5 µM
IC50 (BXPC-3; 24 h): 39.8 ± 2.2 µM
toxicity to the mice [1]: little toxicity to the mice
IC50 (A549): 52.9 ± 2.5 µM
IC50 (leukemia cell strains): 20 to 60 µM
IC50 (LNCap; 24 h): 49.1 ± 3 µM
IC50 (K562): 54.2 µM
IC50 (THP-1): 24.7 µM
IC50 (HL-60): 46.4 µM
Cell Survival Rate (%) (U937 [2]): 23.24%
IC50 (U937 [2]): 25.2 µM
IC50 (MDA-MB-231): 56.9 ± 12.3 µM
IC50 (OE19): 29.9 ± 3.4 µM
IC50 (cancer cells): 20 to 60 µM
IC50 (Caki-1 [3]; 24 h): 43.3 ± 3 µM

IC50 (BXPC-3; Pancreatic cancer Bxpc3, read-out: Anti-tumor activity, IC50 (μM) ± SD): > 352 µM
Binding of Hsp90 (%) ([4]; peptide 1.411 μM): 88.19%
Binding of Hsp90 (%) ([4]; peptide 14.11 μM): 84.60%
Binding of Hsp90 (%) ([4]; peptide 141.1 μM): 72.26%
Binding of Hsp90 (%) ([4]; peptide 282.2 μM): 29.75%
Binding of Hsp90 (%) ([4]; peptide 705.5 μM): 0%
IC50 (T47D): > 352 µM
IC50 (LNCap; Prostate cancer LNcap, read-out: Anti-tumor activity, IC50 (μM) ± SD): > 352 µM
IC50 (Caki-1 [3]; Kidney cancer Caki-1, read-out: Anti-tumor activity, IC50 (μM) ± SD): > 352 µM
SMILES: CC[C@H](C)[C@H](NC(=O)[C@H](CCCNC(=N)N)NC(=O)[C@H](C)NC(=O)[C@H](Cc1ccc(O)cc1)NC(=O)[C@H](C)NC(=O)[C@@H](N)CCCCN)C(=O)NCC(=O)N[C@@H](CC(N)=O)C(=O)N[C@@H](CO)C(=O)N[C@@H](Cc1ccc(O)cc1)C(=O)N[C@@H](Cc1ccccc1)C(=O)N[C@@H](CCCCN)C(=O)O [TPR]
IC50 (HEK293): > 352 µM
inhibition of the interaction between Hsp90 and TPR2A ([4]; increasing peptide concentration): exerts an influence on the interaction between Hsp90 and TPR2A
intracellular penetration (U937 [5]): did not penetrate into the cell
IC50 (MRC-5): > 352 µM
killing effect after introduction with transfection reagent (Caki-1 [6]): observed when the TPR peptide was introduced
Cell Survival Rate (%) (U937 [2]): 92.79%
Anti-cancer activity (% relative to wild-type peptide) (U937 [2]; U937, wild-type peptide = 100%): 9.39%
Decrease in cell survival rate (% relative to wild-type peptide) (U937 [2]; U937, wild-type peptide = 100%): 25.04%
